For one assay, the target named is hSERT (Homo sapiens, UniProt P31645). Put plainly: Dissociation assay with [3H]-citalopram and hSERT membrane preparations. It counts as binding. The note with it: for Max. Stability (maximum stabilization factor): estimated upper plateau of sigmoidal response curve: how many folds the off-rate of bound radioligand from SERT can be attenuated, N/A = No activity. On the procedure:
Dulbecco's modified Eagle's medium, fetal bovine serum, trypsin, and penicillin/streptomycin were purchased from Invitrogen. Cell culture flasks were from NUNC. MicroScint-20 scintillation mixture was from Packard. [^3H]-Citalopram (85 Ci/mmol) was a gift from H. Lundbeck A/S (Valby, Denmark). Fugene-6 transfection reagent was from Roche Molecular Biochemicals. All chemicals are commercially available. Stock solutions of the allosteric ligands were prepared as 100 mM in EtOH.
The pcDNA3 plasmid vector containing the hSERT gene was used for transfection.
17.5 μl Fugene-6 (Roche Molecular Biochemicals) were mixed with 280 μl Dulbecco's modified Eagle's medium, and incubated at room temperature for 5 minutes. 10 μg of hSERT plasmid were added and the mixture was further incubated at least 15 minutes. […] The cells were plated at 35% confluency in a 150 mm dish, and grown at 37° C. for 64 h. Prior to harvesting the dish was rinsed in PBS. Cells were harvested with a cell scraper in buffer 1 (50 mM Tris-base, 150 mM NaCl, 20 mM EDTA, pH 7.4). After centrifugation (3000 g at 4° C. for 10 mins), cells were suspended and homogenized with an IKA Ultra-Turrax from Rose Scientific Ltd (Edmonton, Alberta, Canada) for 20 s in buffer 1. Membranes were pelleted by ultracentrifugation (12 000 g at 4° C. for 15 min) and homogenization was repeated in buffer 1. Finally, after ultracentrifugation (12000 g, 4° C., 15 min) membranes were resuspended in 1 ml buffer 3 (50 mM Tris-base, 120 mM NaCl, 5 mM KCl, pH 7.4) and stored at −80° C.
Dissociation Assay with [^3H]-Citalopram and Membrane Preparations.
SERT-[^3H]-citalopram complex was formed by incubating hSERT membrane preparation and radioligand in buffer 3 during a 60 min incubation at 4° C. Radioligand was present at a concentration 10 times the Kd value. The time kinetic of dissociation was followed by adding 10 μL complex solution to 250 μL buffer 3 in 96-well plates and incubating subsequently for increasing time intervals at RT. Reactions were terminated by filtration through GF/C glass-fibre filters (Unifilter, Perkin Elmer Life Sciences), preincubated with 40 μl 0.5% polyethyleneimine, using a Pachard Bell cell harvester, and subsequently washed three times with water. Filters were soaked in 40 μl Microscint 20 scintillation liquid (Pachard Bell). Bound radioactivity was determined by direct counting of plates using a Packard Bell microplate scintillation counter. Dissociation curves were obtained by plotting residual binding vs. time of dissociation.
The concentrations of allosteric compound in the dissociation buffer range from 400-0.2 μM.
The relative off-rate is expressed as the off-rate of the radioligand at a given concentration of allosteric compound, normalized to the off-rate of radioligand in the absence of allosteric compound.
The maximum stabilization factor is defined as the estimated upper plateau of the sigmoidal response curve, and describes how many folds the off-rate of bound radioligand from SERT can be attenuated in the presence of increasing concentrations of allosteric compound in the dissociation buffer.

The test system of a further assay is Balb/cJ male mice. Briefly: Forced swim test (FST). It counts as in vivo. The following applies: intraperitoneally 30 min prior to FST, seven minutes scoring period. On the procedure:
FIGS. 5A and 5B. Effect of allosteric compound in the mouse forced swim test (FST). Drugs were dissolved in 10% β-2-hydroxy-cyclodextrine. Male BalB/c were injected intraperitoneally with 500 μl SSRI alone or in combination with allosteric compound 30 min prior to FST (n=8). Vehicle treated animals each received 500 μl 10% 13-2-hydroxy-cyclodextrine. […] FIG. 5B depicts the effect of 5 mg/(kg bodyweight) of escitalopram alone and in combination with 15 mg/(kg bodyweight) of the allosteric compound of Example 1 (denoted ALN10 in figure). […]
FST is a behavioral model widely used to assess antidepressant-like activity in mice Porsholt et al, 1978). […] The total duration of immobility within a seven minute test period, is the main parameter measured. […]
Male BalB/c were injected intraperitoneally with 500 μl SSRI alone or in combination with allosteric compound 30 min prior to the swimming session (n=6). […] Swim sessions were videofilmed and analyzed by a blind scorer using stop watch, or by analyzing software (Ethovision, Noldus). The parameter measured was amount of time spent in a state of immobility, including small movements to keep balance and head over water. […]
FIGS. 5A and 5B gives the results from the forced swim test for the compound of Example 1. […] The dose of SSRI was chosen to be the highest sub-active concentration determined. […]

[1] abbreviates: concentration of allosteric compound inducing 50% attenuation of the off-rate of the radioligand from SERT, 10 μM fluoxetine in dissociation buffer, read-out: EC50.

Usually EC50 stands for the concentration needed to bring the measured effect to its halfway point.

Molecules are shown by their SMILES. Where two headings read alike, the source gives them in different places.

hSERT, sequence (P31645 whole entry): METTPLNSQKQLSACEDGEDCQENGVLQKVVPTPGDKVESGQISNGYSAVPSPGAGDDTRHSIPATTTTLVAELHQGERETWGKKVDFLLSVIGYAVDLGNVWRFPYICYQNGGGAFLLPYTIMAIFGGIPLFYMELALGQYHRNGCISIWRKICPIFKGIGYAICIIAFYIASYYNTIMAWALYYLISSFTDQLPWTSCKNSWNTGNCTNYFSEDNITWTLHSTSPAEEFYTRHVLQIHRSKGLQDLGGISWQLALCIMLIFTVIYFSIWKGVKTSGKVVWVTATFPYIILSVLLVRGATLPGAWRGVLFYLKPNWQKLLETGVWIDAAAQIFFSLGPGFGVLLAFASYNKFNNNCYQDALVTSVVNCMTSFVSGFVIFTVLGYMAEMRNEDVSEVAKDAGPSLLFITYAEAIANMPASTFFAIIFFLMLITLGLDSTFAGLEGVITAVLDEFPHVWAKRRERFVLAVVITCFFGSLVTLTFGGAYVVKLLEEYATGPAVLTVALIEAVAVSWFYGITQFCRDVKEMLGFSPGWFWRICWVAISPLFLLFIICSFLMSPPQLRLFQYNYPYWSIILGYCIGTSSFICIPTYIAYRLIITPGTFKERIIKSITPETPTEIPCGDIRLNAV

In the case of `CCOC(=O)c1cccc2ccccc12` [Example 1, 1-Naphthoic Acid Ethyl Ester], on hSERT (setting [1]), the EC50 worked out at 3.3 µM. The “Max. Stability (maximum stabilization factor)” value (shortened to “Max. Stability”) on hSERT is on record as 9.1. Moreover, in the assay on Balb/cJ male mice (15 mg/kg allosteric compound + 5 mg/kg (subactive) escitalopram), the “immobility time in FST, combination with escitalopram” value was “significantly reduced immobility time”. Further, the “immobility time in FST, combination with fluoxetine” value in the assay on Balb/cJ male mice (15 mg/kg allosteric compound + 5 mg/kg (subactive) fluoxetine) was “significantly reduced immobility time”.
Regarding `COC(=O)c1cccc2ccccc12` [Example 2, 1-Naphthoic Acid Methyl Ester], the EC50 on hSERT (setting [1]) worked out at 29 µM. Moreover, the “Max. Stability” value on hSERT is 7.4.
Take `CCCOC(=O)c1cccc2ccccc12` [Example 3, 1-Naphthoic Acid Propyl Ester]: the EC50 at hSERT (setting [1]) was 2.1 µM. Moreover, the “Max. Stability” value at hSERT is 17.
Turning to `CC(C)OC(=O)c1cccc2ccccc12` [Example 4, 1-Naphthoic Acid Isopropyl Ester], the EC50 at hSERT (setting [1]) is 9.8 µM. For the same compound, the “Max. Stability” value on hSERT is recorded as 16.
In the case of `O=C(OCCO)c1cccc2ccccc12` [Example 6, 1-Naphthoic Acid 2-Hydroxyethyl Ester], on hSERT (setting [1]), the EC50 was 14.5 µM. Besides, the “Max. Stability” value at hSERT is reported as 20.
For `C=CCOC(=O)c1cccc2ccccc12` [Example 8, 1-Naphthoic Acid 2-Propenyl Ester], in that order: 16 µM and 11.
Take `C#CCOC(=O)c1cccc2ccccc12` [Example 9, 1-Naphthoic Acid 2-Propynyl Ester]: the half-maximal effective concentration (EC50) at hSERT (setting [1]) came to 15 µM. Moreover, the “Max. Stability” value at hSERT is given as 13.
For the compound `CCNC(=O)c1cccc2ccccc12` [Example 10, 1-Naphthoic Acid Ethylamide], the EC50 on hSERT (setting [1]) was found to be 74 µM. Further, the “Max. Stability” value on hSERT was 1.8.
As for `CCCSc1cccc2ccccc12` [Example 11, 1-Propyl-Sulfanyl-1-Naphthalene], the EC50 on hSERT (setting [1]) was 4.7 µM. The “Max. Stability” value on hSERT is given as 6.4.
On the same counts, the results for `CSc1cccc2ccccc12` [Example 12, Methyl-[1]Naphthyl Sulphide] are 17 µM and 10.
For `CCSc1cccc2ccccc12` [Example 13, Ethyl-[1]Naphthyl Sulphide], in that order: 9.4 µM and 8.3.
In the case of `CCCCSc1cccc2ccccc12` [Example 14, 1-Butyl-Sulfanyl-1-Naphthalene], the EC50 on hSERT (setting [1]) amounted to 12 µM. For the same compound, the “Max. Stability” value at hSERT is on record as 3.6.
On the same counts, the results for `OCCSc1cccc2ccccc12` [Example 15, 2-Hydroxyethyl-1-Naphthyl Sulphide] are 4.6 µM and 10.2.
For `C#CCSc1cccc2ccccc12` [Example 16, 3-Ethynyl-Sulfanyl-1-Naphthalene], in that order: 1.2 µM and 10.3.
On the same counts, the results for `C=CCSc1cccc2ccccc12` [Example 17] are 3.2 µM and 6.3.
For `CCCOc1cccc2ccccc12` [Example 21, 1-Propoxy-Naphthalene], the concentration giving a half-maximal response (EC50) on hSERT (setting [1]) is 46 µM. In addition, the “Max. Stability” value at hSERT is 3.9.
For `CCOC(=O)n1ccc2ccccc21` [Example 24, Indole-1-Carboxylic Acid Ethyl Ester], the EC50 on hSERT (setting [1]) was 1.3 µM. Besides, on hSERT, the “Max. Stability” value is given as 9.
On to `CCOC(=O)n1ccc2ccc(C)cc21` [Example 27, 6-Methyl-Indole-1-Carboxylic Acid Ethyl Ester], for which, at hSERT (setting [1]), the EC50 was found to be 34 µM. Moreover, the “Max. Stability” value at hSERT is reported as 15.
Turning to `CCOC(=O)n1ccc2ccc(Cl)cc21` [Example 28, 6-Chloro-Indole-1-Carboxylic Acid Ethyl Ester], on hSERT (setting [1]), the EC50 is 31 µM. Moreover, on hSERT, the “Max. Stability” value is on record as 8.8.
With `CCOC(=O)n1nnc2ccccc21` [Example 29, Benzotriazole-1-Carboxylic Acid Ethyl Ester], the EC50 at hSERT (setting [1]) turned out to be 61 µM. Moreover, at hSERT, the “Max. Stability” value is given as 5.4.
For `O=C(OC1CCCC1)c1cccc2ccccc12` [Example 32, 1-Naphthoic Acid Cyclopentyl Ester], in that order: 9.6 µM and 10.
On to `CCOC(=O)n1cc(C)c2ccccc21` [Example 35, 3-Methyl-Indole-1-Carboxylic Acid Ethyl Ester], for which the EC50 on hSERT (setting [1]) was 5 µM. In addition, on hSERT, the “Max. Stability” value is reported as 6.
As to `Sc1cccc2ccccc12` [reference compound], the EC50 at hSERT (setting [1]) was more than 1000 µM.
For the compound `CCOS(=O)(=O)c1cccc2ccccc12` [reference compound], on hSERT, the EC50 amounted to 120 µM and the “Max. Stability” value is 3.1.

Values taken from US20130123326A1, “ALLOSTERIC BINDING COMPOUNDS” (REGION MIDTJYLLAND, priority 2009, published 2013).
